Assay results: patent publication US8530404B2, “Compounds and methods for treatment of cancer” (FibroGen, Inc., priority 2005, dated 2013)
Marks after values point to notes of the source that are not given here.

Key:
[1] = system: human H-460-GFP lung tumors; assay: Orthotopically implanted human H-460-GFP lung tumor mouse xenograft, survival and metastasis (Example 3); format: in vivo; conditions: 7.5 mg/kg i.v. on days 3, 7, 11
Experimental: To examine the effect of methods and compounds of the present invention in a metastatic model of tumor progression, compounds of the invention were administered to orthotopically implanted H-460-GFP xenografted animals. Tumor models employing surgical orthotopic implantation (SOI) into the organ of origin of the original tumor are regarded as representative of cancer progression and metastasis in humans. Orthotopic implantation of H-460 increases the rate of tumor metastasis.
This experiment is carried out as described in Example 1 above, with the following modifications. To aid in identification and scoring of metastasis, the human H-460 lung cancer cell line was replaced by genetically-engineered tumors of GFP-transfected H-460 cells. 1-2 mm^3 H460-GFP lung tumor fragments were implanted by surgical orthotopic implantation (SOI) and sutured directly into lung tissue. (Yang et al., (1998) Cancer Res 58:4217-4221.) Dosing was initiated immediately after successful confirmation of tumor take by fluorescent GFP imaging (˜5 days following tumor implantation). Doxorubicin (DOX, 7.5 mg/kg, i.v. administration) was used as a chemotherapy control, and was administered on treatment days 3, 7, and 11.
In addition to weekly caliper measurement of primary tumor size, GFP imaging was performed on animals to monitor primary tumor progression and metastasis, starting the first day of treatment. Study endpoints were reached when an average tumor size of 2 cc or three morbid mice appear in any one group, whichever occurs first, regardless of treatment duration. Each animal was checked daily for mortality or signs of morbidity. Morbid animals were frozen. All animals, including dead animals, were examined by GFP imaging for primary tumor and metastasis at necropsy. Imaging and caliper measurements were used to determine the effects of treatment. Primary tumors were excised, measured and weighed at necropsy. Blood samples were taken during terminal sacrifice and complete blood counts (CBC) and reticulocyte analysis were performed.
Tumor metastasis is associated with increased morbidity and mortality in humans with metastatic cancer and in animal models of metastatic cancer. […] The increased morbidity and mortality were recorded and animals were preserved for subsequent necropsy. The study was terminated after >3 animals were found morbid in the vehicle group on treatment day 14, at which point the remaining animals were sacrificed to evaluate and compare tumor progression in the various treatment groups.
To determine metastatic frequency, the thoracic and abdominal cavities of animals were examined by fluorescent imaging.

H460 tumor cells = assay: Subcutaneous H460 lung tumor xenograft, tumor growth delay study in combination with chemotherapeutics (Example 6); format: in vivo, mouse; conditions: Cmpd A 60 mg/kg p.o., paclitaxel 15 mg/kg i.v., carboplatin 120 mg/kg i.p.
Experimental: This study was used to determine the effect of combined treatments where compounds and methods of the invention were combined with conventional anti-tumor therapies. These experiments were performed essentially as described above in Example 3, except that 1×10^7 H460 tumor cells were implanted subcutaneously to the flanks of female Harlan nude animals. The number of animals in each group was 10. Treatments were initiated when tumors reached an average size of approximately 100 mm^3.
The study design was representative of tumor progression studies of the TGD (Tumor Growth Delay) type, using a protocol that required individual animals to be humanely euthanized after reaching a set endpoint of tumor volume greater than or equal to 2 cc.
These two chemotherapeutic agents are of two broad classes of conventional anti-tumor therapeutics: microtubule poisons (paclitaxcel); and DNA-directed agents, including the sub-classification of DNA alkylating agents (carboplatin). In tumor-bearing human patients, conventional anti-tumor therapy commonly use of one or both classes of chemotherapeutic agents.
The study was initiated with administration of conventional anti-tumor treatment or vehicle control, and followed one day after with administration of Compound A or vehicle control. […] (See Table 11 and Table 12 for compound and chemotherapeutic agent dosing schedule.)
Tumor progression was determined for each treatment group and is presented as median Time-to-Endpoint (TTE).

| SMILES | Metastatic Incidence (proportion of animals exhibiting mediastinal lymph node metastasis) ([1]; vehicle 9/10) | proportion of surviving animals ([1]; treatment day 9) | proportion of surviving animals ([1]; treatment day 11) | proportion of surviving animals ([1]; treatment day 12) | proportion of surviving animals ([1]; treatment day 13) | proportion of surviving animals ([1]; treatment day 14) | % TGD, Percent Tumor Growth Delay (vs. Group control) (H460 tumor cells) [%] | T-C (Test-control, difference of medians) (H460 tumor cells) [days] | Median TTE (Time-to-Endpoint, tumor volume >= 2 cc) (H460 tumor cells; vehicle group 16.2) [days] |
| --- | --- | --- | --- | --- | --- | --- | --- | --- | --- |
| COc1cccc2c1C(=O)c1c(O)c3c(c(O)c1C2=O)C[C@@](O)(C(=O)CO)C[C@@H]3O[C@H]1C[C@H](N)[C@H](O)[C@H](C)O1 [DOX, Doxorubicin, reference compound] | 4/10^# | 10/10 | 10/10 | 10/10 | 10/10 | 10/10 |  |  |  |
| N.N.O=C([O-])C1(C(=O)[O-])CCC1.[Pt+2] [carboplatin] |  |  |  |  |  |  | 107 | 17.3 | 33.5 |
